Assay results taken from patent publication US10604585B2, “Modulation of PTPRA to treat arthritis” (La Jolla Institute for Allergy & Immunology, priority 2014, dated 2020).

Assays:
RA FLS [1] = conditions: reference (40); cited from earlier work
RA FLS [2] = assay: RA FLS induction of gene expression in response to TNF and IL-1β (qPCR, ELISA); format: cell-based, human; conditions: for TNF- and IL-1-induced production of CXCL10 / TNF- and IL-1-induced production of IL6 / TNF- and IL-1-induced production of MMP13: 50 ng/ml TNFα or 2 ng/ml IL-1β with inhibitor for 24 hr
Description: FLS were obtained from the UCSD CTRI Biorepository. Each line was previously obtained from discarded synovial tissue of a different patient with RA at the time of synovectomy, as described previously (21). The diagnosis of RA conformed to American College of Rheumatology 1987 revised criteria(22). FLS were cultured in DMEM (Mediatech, Manassas, Va.) with 10% fetal bovine serum (FBS, Omega Scientific, Tarzana, Calif.), 2 mM L-glutamine, […] gentamicin, 100 units/ml of penicillin and […] streptomycin (Life Technologies, Carlsbad, Calif.) at 37° C. in a humidified 5% CO2 atmosphere. For all experiments, FLS were used between passages 4-10, and cells were synchronized in 0.1% FBS (serum-starvation media) for 48 hours prior to analysis or functional assays.
RNA was extracted using RNeasy Kits (Qiagen, Valencia, Calif.) or Trizol (Life Technologies). For lysis of FLS, adherent cells were first washed in PBS and then lysed in the culture plate. cDNA was synthesized using the SuperScript® III First-Strand Synthesis SuperMix (Life Technologies). qPCR was performed using a Roche Lightcycler 480 (Indianapolis, Ind.), with primer assays from SABiosciences/Qiagen. Reactions were measured in triplicate and data was normalized to the expression levels of the house-keeping gene glyceraldehyde 3-phosphate dehydrogenase (GAPDH) or RNA Polymerase II (RPII) (23).
(§1) FLS were treated with 2.5 uM PMO (Gene Tools, Philomath, OR) for 7 days. PMO was replaced in fresh culture medium after 3 days and in serum-starvation medium after 5 days.
Secreted human IL-6 and chemokine (C-X-C motif) ligand 10 (CXCL10) were measured using ELISAs from Biolegend (San Diego, Calif.).

RA FLS [3] = assay: Death of RA FLS on treatment with FAK inhibitor; format: cell-based, human; conditions: at the concentrations used in these experiments
RA FLS [4] = assay: Western blotting of RA FLS lysates (SRC, FAK, MAPK, AKT, NF-κB signaling); format: cell-based, human; conditions: 10 μM inhibitor vs DMSO
RA FLS [5] = assay: as above; format: cell-based, human
Description: as §1
Adherent cells were washed in PBS and then lysed in the culture plate in RIPA buffer (25 mM Tris-HCl pH 7.6, 150 mM NaCl, 1% NP-40, 1% sodium deoxycholate, 0.1% SDS) containing 1 mM phenylmethanesulfonyl fluoride, 10 ng/ml aprotinin, 10 μg/ml leupeptin, 10 μg/ml soybean trypsin inhibitor, 10 mM sodium orthovanadate, 5 mM sodium fluoride and 2 mM sodium pyrophosphate. Protein concentration of cell lysates was determined using the Pierce BCA Protein Assay Kit (Thermo Scientific, Rockford, Ill.).

RA FLS [6] = assay: Spreading and adhesion assay on fibronectin-coated coverslips; format: cell-based, human; conditions: 5% FBS, FIG. 2D
Description: as §1
Following treatment with PMO, equal numbers of live RA FLS were re-suspended in FLS medium containing 5% FBS and allowed to adhere onto coverslips coated with 20 μg/ml fibronectin (FN) at 37° C. for 15, 30 and 60 minutes. Cells were fixed in 4% para-formaldehyde for 5 minutes, permeabilized in 0.2% Triton X-100 for 2 minutes, and stained with 5 U/ml Alexa Fluor® 568 (AF 568)-conjugated phalloidin and 2 μg/ml Hoechst for 20 minutes (Life Technologies). Samples were imaged with an Olympus FV10i Laser Scanning Confocal Microscope (Olympus, Center Valley, Pa.). Using the FV10i acquisition software, each coverslip was separated into four nine-paneled mega-images. Each panel (1024×1024) was acquired with a 10× objective and then stitched together, through a 10% overlap, with the Olympus FluoView 1000 imaging software. Total cell number and cell areas for each panel were calculated using Image Pro Analyzer software (Media Cybernetics, Rockville, Md.).

RA FLS [7] = assay: Survival and apoptosis assay (Annexin V / PI, FACS); format: cell-based, human; conditions: sera-starvation media or in the presence of PDGF (50 ng/ml, 24 hr); FIG. 2C
Description: as §1
Following treatment with PMO, RA FLS were washed and incubated for an additional 24 hoursr in serum-starvation media. Adherent and non-adherent cells were collected and stained with Annexin V-Alexa Fluor® 647 and propidium iodide (PI) according to the manufacturer's instructions (Biolegend, San Diego, Calif.). Cell fluorescence was assessed by FACS using a BD LSR-II (BD Biosciences), and counts and percentages of live (Annexin V−PI−), early apoptotic (Annexin V+PI−), or late apoptotic/necrotic (Annexin V+PI+) cells were obtained. Data was analyzed for statistical significance using the Chi-square test for independence.

[8] = RA FLS, RPTPα knockdown with PMO, FIG. 3B, 3C
[9] = basal conditions, PTPRA knockdown
[10] = unstimulated PMO-treated RA FLS, FIG. 3D
[11] = 2.5 μM PMO for 7 d, then 2 ng/ml IL-1β for 24 hr, vs Ctl PMO, FIG. 1D
[12] = 2.5 μM PMO for 7 d, then 50 ng/ml TNF for 24 hr, vs Ctl PMO, FIG. 1D
[13] = RA FLS, 2.5 μM PMO for 7 d, FIG. 1D
[14] = 2.5 μM PTPRA_2 PMO for 7 d, then 50 ng/ml TNF or 2 ng/ml IL-1 for 24 hr, FIGS. 8A-8B

NC1(c2ccc(-c3nc4ccn5c(=O)[nH]nc5c4cc3-c3ccccc3)cc2)CCC1 [MK2206, reference compound]
RA FLS migration and invasiveness (RA FLS [1]): attenuate | IL-1β-induced expression of CXCL10 (RA FLS [2]; RA FLS, 2 ng/ml IL-1β with inhibitor for 24 hr, vs DMSO, qPCR, FIG. 4A): increased | TNF- and IL-1-induced production of CXCL10 (RA FLS [2]; RA FLS, vs DMSO, qPCR, FIG. 4A): did not dampen | TNF- and IL-1-induced production of IL6 (RA FLS [2]; RA FLS, vs DMSO, qPCR, FIG. 4A): increased | TNF- and IL-1-induced production of MMP13 (RA FLS [2]; RA FLS, vs DMSO, qPCR, FIG. 4A): did not dampen

CS(=O)(=O)c1cccc(CNc2nc(Nc3ccc4c(c3)CCC(=O)N4)ncc2C(F)(F)F)c1 [PF573228]
death of RA FLS (RA FLS [3]): does not cause death | p38-T180/Y185 phosphorylation (RA FLS [4]; 50 ng/ml TNF or 2 ng/ml IL-1β for 30 min): no effect | TNF- and IL-1β-induced phosphorylation of JNK-T183/Y185 (RA FLS [4]; 50 ng/ml TNF or 2 ng/ml IL-1β for 30 min, FIG. 4B): impaired | FAK-Y397 phosphorylation (RA FLS [4]; FIG. 4B): impaired | TNF- and IL-1-induced production of CXCL10 (RA FLS [2]; RA FLS, vs DMSO, qPCR, FIG. 4A): significantly decreased | TNF- and IL-1-induced production of IL6 (RA FLS [2]; RA FLS, vs DMSO, qPCR, FIG. 4A): significantly decreased | TNF- and IL-1-induced production of MMP13 (RA FLS [2]; RA FLS, vs DMSO, qPCR, FIG. 4A): significantly decreased

PTPRA PMO: cell-permeable antisense morpholino oligo (PMO) targeting PTPRA; probably SEQ ID NO:4, 5′ GACATTAAGGAATGCCTTACCCACA 3′ (assignment not stated) (morpholino, cell-permeable, chemistry not fully specified)
TNF- and IL-1β stimulated phosphorylation of AKT-S473 (RA FLS [5]; RA FLS, PMO treatment, FIGS. 3B-3C): reduced | TNF- and IL-1β-stimulated phosphorylation of JNK (T183/Y185) (RA FLS [5]; [8]): impaired | TNF- and IL-1β-stimulated phosphorylation of p38-T180/Y182 (RA FLS [5]; [8]): impaired | phosphorylation of FAK-Y397 (RA FLS [5]; RA FLS, RPTPα knockdown with PMO, FIG. 3C): reduced | proteolytic processing of NFκB subunit p100 (ratio of p52:p100) (RA FLS [5]; [9]): unaffected | proteolytic processing of NFκB subunit p105 (ratio of p50:p105) (RA FLS [5]; [9]): unaffected | phosphorylation of SRC-Y527 (RA FLS [5]; resting RA FLS, RPTPα knockdown with PMO, FIG. 3A): increased | levels of IκBα following 10 minutes post-stimulation, Ctl vs PTPRA PMO-treated cells (RA FLS [5]; stimulation with TNF or IL-1β, FIG. 3B, 3C): similar | basal phosphorylation of IκB kinase (IKK)-αβ on Ser176/180 (RA FLS [5]; [10]): non-significant trend towards decreased | basal phosphorylation of NFκB subunit p65 on Ser536 (RA FLS [5]; [10]): non-significant trend towards decreased | levels of IκBα protein in resting RA FLS (RA FLS [5]; unstimulated, PMO treatment): modest decrease | RA FLS production of CXCL10 in response to IL-1β (RA FLS [2]; [11]): significantly reduced | RA FLS production of IL6 in response to IL-1β (RA FLS [2]; [11]): significantly reduced | RA FLS production of MMP3 in response to IL-1β (RA FLS [2]; [11]): significantly reduced | RA FLS production of MMP13 in response to IL-1β (RA FLS [2]; [11]): significantly reduced | RA FLS production of CXCL10 in response to TNF (RA FLS [2]; [12]): significantly reduced | RA FLS production of MMP13 in response to TNF (RA FLS [2]; [12]): significantly reduced | expression of IL-1β receptor (IL1R) (RA FLS [2]; [13]): increased | expression of TNF receptor (TNFRSF1A) (RA FLS [2]; [13]): no effect | spreading on fibronectin-coated coverslips (RA FLS [6]; cell area after 15, 30 and 60 min): impaired spreading | adherence of live cells to fibronectin-coated coverslips (RA FLS [6]; cells per field after 15 min): less adherent | apoptosis compared to control-treated cells (RA FLS [7]): significantly increased

second PTPRA-targeted PMO: second PTPRA-targeted PMO of a different sequence; probably SEQ ID NO:5, 5′ GTGTCTCATCTGAAATCAAGACAAC 3′ (assignment not stated) (morpholino, cell-permeable, chemistry not fully specified)
effect on CXCL10 (reduced production, protein in supernatants by ELISA) (RA FLS [2]; [14]): confirmed | effect on IL-6 (reduced production, protein in supernatants by ELISA) (RA FLS [2]; [14]): confirmed
